Results as given in patent publication US12527782B2, “Use of hexokinase 2/mitochondria-detaching compounds for treating hexokinase-2 (HK2)-expressing cancers” (Vidac Pharma Ltd., priority 2016, dated 2026).
Read-outs that look alike come from different tables or passages of the source.

What was measured:
[1] = tested on: Pancreas PAXF Mia-Pa-Ca-2; assay: CFA, PAXF Mia-Pa-Ca-2; format: cell-based, human; conditions: Cell line/CFA
Protocol: (§1) CFA was performed by Charles River Laboratories (Freiburg, Germany) in 96-well plate format according to a modified two-layer soft agar assay. The origin of the tumor xenografts has been described (Fiebig et al. 1989, incorporated herein by reference). The list of tumors used in this study is detailed in Table 1.

[2] = tested on: Lung (NSCLC, adeno) LXFA 629; assay: CFA, LXFA 629; format: cell-based, human; conditions: PDX/CFA
Protocol: as §1

VDAC1/HK1 complex = target: T1, VDAC1/HK1 complex (Homo sapiens, UniProt P19367); assay: Microscale Thermophoresis (MST) dissociation of VDAC1/HK1 complex; format: binding; conditions: cell-free MST
T1 construct: host or cells: E. coli (HK1); sheep liver mitochondria (VDAC1)
T1 sequence (P19367 whole entry, one chain of several): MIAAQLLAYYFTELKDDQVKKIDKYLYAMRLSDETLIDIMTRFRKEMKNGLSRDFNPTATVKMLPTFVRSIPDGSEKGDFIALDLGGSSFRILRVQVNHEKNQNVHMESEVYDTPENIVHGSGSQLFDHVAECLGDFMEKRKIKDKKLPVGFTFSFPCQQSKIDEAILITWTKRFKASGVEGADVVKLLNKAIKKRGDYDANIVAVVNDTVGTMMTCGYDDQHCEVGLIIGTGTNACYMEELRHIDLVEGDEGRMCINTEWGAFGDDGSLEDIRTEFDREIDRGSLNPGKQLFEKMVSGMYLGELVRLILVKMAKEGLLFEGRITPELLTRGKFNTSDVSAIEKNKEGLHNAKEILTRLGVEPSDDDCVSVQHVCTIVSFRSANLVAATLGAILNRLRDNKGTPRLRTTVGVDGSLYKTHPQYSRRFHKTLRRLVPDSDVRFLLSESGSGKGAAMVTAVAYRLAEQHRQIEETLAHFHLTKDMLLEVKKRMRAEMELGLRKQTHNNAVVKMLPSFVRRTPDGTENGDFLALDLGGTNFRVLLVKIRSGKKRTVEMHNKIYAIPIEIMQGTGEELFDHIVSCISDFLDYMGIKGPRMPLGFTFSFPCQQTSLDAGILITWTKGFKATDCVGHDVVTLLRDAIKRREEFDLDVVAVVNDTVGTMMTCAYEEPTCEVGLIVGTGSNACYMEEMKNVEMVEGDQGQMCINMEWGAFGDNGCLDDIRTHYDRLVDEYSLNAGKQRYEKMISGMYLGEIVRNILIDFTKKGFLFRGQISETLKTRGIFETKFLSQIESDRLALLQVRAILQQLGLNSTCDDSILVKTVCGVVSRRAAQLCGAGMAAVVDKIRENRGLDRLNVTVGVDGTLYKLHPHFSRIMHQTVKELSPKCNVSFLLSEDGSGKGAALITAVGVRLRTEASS
Protocol: A431 (human skin SCC), HT-297.T (human AK), and HaCaT transformed normal keratinocyte cell lines were from ATCC (Manassas, VA) and were maintained in DMEM supplemented with 10% FCS, 4 mM L-Gln, 1 mM sodium pyruvate, 100 U/mL penicillin, 1 μg/mL streptomycin. Human HK1 and HK2 plasmids were purchased from Addgene (Cambridge, MA) and were purified from E. Coli. VDAC1 was purified from sheep liver mitochondria as described (Arbel et al. 2012, incorporated herein by reference). Human skin tissue microarray (SK208 and SK 805) were purchased from US Biomax Inc. (Rockville, MD).
Studies were conducted on Nanotemper Monolith NT.115 (Munich, Germany). HK1 and HK2 were labeled using Monolith™ NT.115 Protein Labeling Kit BLUE-NHS. As a preliminary study to form the VDAC1-HK complexes, various concentrations of VDAC1 were added to 67 nM HK1 or 71 nM HK2. The preferred VDAC1 concentration was determined to be 1.5 μM. For dissociation studies, HKs were pre-incubated with VDAC1 for 10 minutes and various concentrations of Formula C were added for an additional 10 minutes. MST default parameters were used and analysis was with Nanotemper analysis software. […]
The activity of Formula C in a cell-free assay was evaluated using Microscale Thermophoresis (MST) analysis, which is based on altered movement of a protein in a temperature gradient when bound to other molecules. […]

[3] = tested on: Lymphoma (Non-Hodgkin) LYXFNH HH (CTCL cell line HH); assay: CFA / 3D clonogenic assay, LYXFNH HH; format: cell-based, human; conditions: for IC50: CTCL cell line HH
Protocol: as §1
The cell lines tested were from a large collection of patient-derived (PDX) and cell line-derived (CDX) human tumor xenografts growing subcutaneously in immunodeficient nude mice (Oncotest GmbH, a Charles River Division). The majority of the xenografts have been directly transplanted from patients and passaged in nude mice. The xenografts retain most of the characteristics of the parental patient tumors including histology and sensitivity to anti-cancer drugs, and efficacy tests in tumor-bearing nude mice largely replicate the response of the donor patient to standard anti-cancer drugs. The cell lines were from publicly available cell lines, including cell lines derived from solid tumors and hematological malignancies. In the clonogenic assay, the capacity of tumor cells for anchorage-independent growth was investigated as colony formation in soft agar in the presence and absence of test compounds. For the assay, tumor cells were harvested from in vitro culture, or tumor cell suspensions were prepared directly from human tumor xenografts growing in nude mice. The cell suspensions also contained tumor stem cells, which are believed to mediate the metastatic and infiltrative potential of a tumor. […]
Formula C was investigated for antitumor potency and tumor type selectivity ex vivo in 11 human tumor models (5 tumor cell lines, 6 xenograft-derived cell suspensions) of various histotypes. Tests were carried out using a 3D clonogenic assay in 96-well format using an image based read-out.
(§2) The clonogenic assay was carried out in a 96 well plate format using ultra low attachment plates. […] Cultures were incubated at 37° C. and 7.5% CO2 in a humidified atmosphere for 8 to 14 days and monitored closely for colony growth using an inverted microscope. […]

[4] = tested on: Lymphoma (Non-Hodgkin) LYXFNH HUT-78; assay: CFA, LYXFNH HUT-78; format: cell-based, human; conditions: Cell line/CFA
Protocol: as §1
The cell lines tested were from a large collection of patient-derived (PDX) and cell line-derived (CDX) human tumor xenografts growing subcutaneously in immunodeficient nude mice (Oncotest GmbH, a Charles River Division). The majority of the xenografts have been directly transplanted from patients and passaged in nude mice. The xenografts retain most of the characteristics of the parental patient tumors including histology and sensitivity to anti-cancer drugs, and efficacy tests in tumor-bearing nude mice largely replicate the response of the donor patient to standard anti-cancer drugs. The cell lines were from publicly available cell lines, including cell lines derived from solid tumors and hematological malignancies. […]
as §2

[5] = tested on: Cutanous T cell lymphoma MyLa; assay: CFA, MyLa; format: cell-based, human; conditions: Cell line/CFA
Protocol: as §1

Compound: CC/C=C\CC1C(=O)CCC1CC(=O)Oc1cccc2cccnc12 (centres unmarked) [Formula C]
- IC50 [1]: 1970 nM
- IC50 [2]: 1380 nM
- effect on the VDAC1/HK1 complex (VDAC1/HK1 complex): no effect
- IC50 ([3]; clonogenic assay in soft agar, read-out: relative IC50, colony formation): 1220 nM
- IC50 ([3]; clonogenic assay, concentration at T/C=50%, read-out: absolute IC50, colony formation): 1200 nM
- test concentration from which pronounced effects were observed ([3]; clonogenic assay, cell lines): ≥ 3 µM
- IC50 [4]: 965 nM
- IC50 [5]: < 1000 nM
